From patent US5449692A, “Substituted (arylalkylaminobenzyl) aminopropionamide derivatives and process for their preparation” (Farmitalia Carlo Erba S.r.l., priority 1993, dated 1995)
Counter-ions that a name gives are not always drawn.

Key:
in vivo = assay: in vivo
Experimental: The neurotoxicity of the compounds and of the reference anticonvulsants was assessed with the rotorod test (Dunan and Miye, J. Am. Pharm. Ass. Sci. Ed., 1957, 46, 208; Kinnard et al. J. Pharmacol. Exp. Ther. 1957, 121, 354; Horowitz, Nature, 1963, 200, 369).
For instance, following Table 1 summarizes the activity and neurotoxicity data obtained in the MES test and in the rotorod test, respectively, for a representative group of compounds according to the present invention, in comparison with the prior art compound 2-(4-benzyl-aminobenzyl)aminopropanamide, dihydrochloride (internal code FCE 26749) which is known from WO-90/14334.
TD50 means toxic dose in 50% of treated animals

[1] = antagonism of maximal electroshock seizures (MES); format: in vivo; details: MES test; read-out: MES - ED50 (effective dose in 50% of treated animals)

`CC(NCc1ccc(NCc2ccc(F)cc2)cc1)C(N)=O.Cl.Cl` (stereo not drawn) [FCE 28640, 2-[4-(4-fluorobenzyl)aminobenzyl]aminopropanamide, dihydrochloride] gave a TD50 (in vivo) of 1680 mg/kg, a selectivity ratio (in vivo) of 63 and an ED50 [1] of 26.5 mg/kg.
Work on `CC(NCc1ccc(NCc2cccc(Cl)c2)cc1)C(N)=O.Cl.Cl` (stereo not drawn) [FCE 28714, 2-[4-(3-chlorobenzyl)aminobenzyl]aminopropanamide, dihydrochloride] yielded a TD50 (in vivo) of 663 mg/kg, a selectivity ratio (in vivo) of 59 and an ED50 [1] of 11.3 mg/kg.
`CC(NCc1ccc(NCc2ccc(Br)cc2)cc1)C(N)=O.Cl.Cl` (stereo not drawn) [FCE 28639, 2-[4-(4-bromobenzyl)aminobenzyl]aminopropanamide, dihydrochloride] gave a TD50 (in vivo) of 1900 mg/kg, a selectivity ratio (in vivo) of 65 and an ED50 [1] of 29.1 mg/kg.
With `CC(NCc1ccc(NCCc2ccccc2)cc1)C(N)=O.Cl.Cl` (stereo not drawn) [FCE 28623, 2-[4-(2-phenylethyl)aminobenzyl]aminopropanamide, dihydrochloride] the TD50 (in vivo) was 917 mg/kg, the selectivity ratio (in vivo) was 54 and the ED50 [1] was 17.1 mg/kg.
`C[C@H](NCc1ccc(NCc2cccc(F)c2)cc1)C(N)=O` [FCE 27232, 2-[4-(3-fluorobenzyl)aminobenzyl]aminopropanamide, dihydrochloride] gave a TD50 (in vivo) of 516 mg/kg, a selectivity ratio (in vivo) of 81 and an ED50 [1] of 6.4 mg/kg.
`CC(NCc1ccc(NCc2ccccc2)cc1)C(N)=O` (stereo not drawn) [FCE 26749, 2-(4-benzyl-aminobenzyl)aminopropanamide, dihydrochloride, reference compound] gave a TD50 (in vivo) of 217 mg/kg, a selectivity ratio (in vivo) of 23 and an ED50 [1] of 9.5 mg/kg.
Work on `CC(NCc1ccc(NCc2ccc(Cl)cc2)cc1)C(N)=O.Cl.Cl` (stereo not drawn) [FCE 28622, 2-[4-(4-chlorobenzyl)aminobenzyl]aminopropanamide, dihydrochloride] yielded a TD50 (in vivo) of 1640 mg/kg, a selectivity ratio (in vivo) of 88 and an ED50 [1] of 18.7 mg/kg.
